Residues, ends and D or L forms follow the SMILES beside them. *: point of attachment. Cbz = O=C(OCc1ccccc1)*; OtBu = CC(C)(C)O*; βAla = NCCC(=O)O

Take `CS(=O)(=O)c1ccc(-n2nc(C(F)F)cc2-c2nc3ccc(F)cc3s2)cc1`: the melting point was 204 to 206 °C.
The compound `CON=Cc1nn(-c2c(Cl)cc(C(F)(F)F)cc2Cl)c(N)c1SC(F)(F)F` returned a melting point of 129 to 132 °C.
Under `CC(CO)(CO)NS(=O)(=O)c1cc(NC(=O)c2cnn3c(C(F)F)cc(-c4ccc(C(F)(F)F)cc4)nc23)c(Cl)s1` stands 237 °C.
The result for `O=C(CC12CC3CC(CC(C3)C1)C2)Nc1ccc(O)cc1Cl` reads 224 to 225 °C; that for `O=C(O)Cc1cc(C(=O)c2cccc(C(=O)O)c2)ccc1O`, more than 260 °C; that for `CCc1c(C)[nH]c2c1C(=S)C1CNCCC1C2` (configuration not stated), 190 to 194 °C.
`CCOC(=O)N1CCc2cc(OC)c(OC)cc2CC1`: the melting point was in the range of 91 to 93 °C.
`NC(=O)c1sc(-n2cnc3cnc(Cl)cc32)cc1OCc1ccccc1C(F)(F)F` registered a melting point of 248 to 249 °C.
The compound `COCc1cccc(C(O)c2nc(OC)cc(OC)n2)c1N` (configuration not stated) returned a melting point of 40 to 42 °C.
Turning to `Cc1cccc(NC(C(N)=O)c2ccccc2C)c1` (configuration not stated), the melting point was in the range of 90 to 91.5 °C.
Under `CC(C)(C)OC(=O)CC(NC(=O)Nc1cccc(C(=O)O)c1)C(=O)Nc1ccccc1C(=O)c1ccccc1` (configuration not stated) stands 175 to 180 °C.
In the case of `N#Cc1ccc(-c2ncc(C(F)(F)F)cc2Cl)cc1OCC(=O)C1CC1`, the melting point was in the range of 115 to 116 °C.
The compound `CC(=NO)c1ccc(Nc2c3ccccc3nc3occc23)cc1` came in with a melting point of 264 to 265 °C.
`COc1cc(OC)nc(Oc2ccnc3c(Cl)cccc23)n1`: the melting point lay in the range of 115 to 118 °C.
As for `O=C(O)CCCNC(=O)c1cccc(NC(=O)c2ccccc2O)c1`, the melting point was in the range of 172 to 174 °C.
As for `CC(C)=CCN1CCOC(CN2c3ccccc3C=Cc3ccccc32)C1` (configuration not stated), the melting point is 99 to 100 °C.
As for `Cc1ccc(S(=O)(=O)c2cn(C(=O)OC(C)(C)C)c3cc(-c4ccc(F)cc4)ccc23)cc1`, the melting point amounted to 135 °C.
As to `Cc1cc(Oc2ccc([N+](=O)[O-])cc2C(F)(F)F)nn1C(=O)NC(C)C`, the melting point was in the range of 90 to 92 °C.
In turn, `COC(=O)n1nc(C(=O)NC2CN(C)CCN(Cc3ccccc3)C2)c2ccccc21` (configuration not stated) yielded a melting point of 158 to 160 °C.
`O=C(O)CCCNC(=O)c1ccccc1SSc1ccccc1C(=O)NCCCC(=O)O` showed a melting point of 165 to 166 °C.
The result for `CCCCCCCCCCc1ccc(NC(=O)c2cccc(-c3ccccc3)c2O)cc1` reads 74 to 75 °C; that for `Cc1nc2ccc(N3CC4CNCC4C3)nn2c1-c1ccnc(CN)c1` (configuration not stated), 169 °C.
As to `COc1cn(-c2ccc(N3CC(F)C3)cc2F)nc(-c2ccnn2-c2ccccc2)c1=O`, the melting point fell in the range of 162 to 163 °C.
In turn, `COc1cc(C=O)c(OC)cc1C` yielded a melting point of 83 °C.
The compound `CC1(C)C(=O)Oc2ccc3cc(N)c(Cn4cncn4)cc3c21` returned a melting point of 160 to 163 °C.
`C=C1CC(COc2ccc3ccc(=O)oc3c2)(c2ccccc2)OC1=O` (configuration not stated) came in with a melting point of 105 to 106 °C.
For `O=C(Nc1ccc(Cl)cc1)NS(=O)(=O)c1ccc2c(c1)OCCO2`, the melting point was determined as 191 °C.
`N#Cc1cc(C(F)(F)F)cc(C(=O)Nc2ccc(Cl)c(Cl)c2)c1N1CCCCC1`: the melting point was determined as 175 °C.
The compound `CC(C)NCCCCCCOc1ccc(O)cc1` displayed a melting point of 78 to 86 °C.
For the compound `Cn1cncc1C(=O)NCc1cccc2c1C(=O)N(C1CCC(=O)NC1=O)C2=O` (configuration not stated), the melting point was more than 260 °C.
`CCCCCCCCCCCCCCCC(=O)OCCN(C)C` displayed a melting point of 46 to 48 °C.
The compound `Cc1[nH]nc(Oc2ncc(C(F)(F)F)cc2Cl)c1C` registered a melting point of 102 to 103 °C.
`COC(=O)c1ccc(Cc2cn(C)c3ccc(NC(=O)CC4CCCC4)cc23)c(OC)c1` registered a melting point of 180 to 181 °C.
As for `CCOc1ccc(-c2nc(-c3cc(C(=O)OC)c4oc(C)cc4c3)cs2)cc1OCC`, the melting point was 144 to 145 °C.
Under `O=C1NC(Cc2cccc(OC(F)(F)C(F)F)c2)C(c2ccc(Oc3ccccc3)cn2)O1` (configuration not stated) stands 87 to 88 °C.
Turning to `Cc1ccccc1-c1c(C(=O)N(C)Cc2cc(C(F)(F)F)cc(C(F)(F)F)c2)n(C)c(=O)c2cccnc12`, the melting point lay in the range of 183 to 185 °C.
With `Nc1ccc2sc(Cl)nc2c1`, the melting point fell in the range of 146 to 149 °C.
`CCCn1cc(Cc2ccc(C(=O)NS(=O)(=O)c3ccccc3C)cc2OC)c2cc(CCNC(=O)N(C)C)ccc21` displayed a melting point of 115 to 121 °C.
Compound `O=C(Cc1cc(C(F)(F)F)ns1)c1ccc(Cl)cc1` came in with a melting point of 109 to 110 °C.
The compound `O=C(c1cccs1)c1cnn2c(-c3ccc(F)c(-c4ccc(CO)cc4)c3)ccnc12` yielded a melting point of 140 to 145 °C.
The result for `COc1cc2c(Nc3ccc(Cl)cc3F)ncnc2cc1OCCCC(=O)N1CCOCC1` reads 216 to 217 °C; that for `COC(=O)c1ccc(SC)c(N)c1`, 63 to 65 °C; that for `COC(=O)c1cc([N+](=O)[O-])c(C)s1`, 81 °C.
The result for `CC(=O)Nc1cc(N(CCO)CCO)ccc1N=Nc1snc(C)c1C#N` reads 188 to 189 °C; that for `CC(=O)NC(CCOC(C)=O)(CCOC(C)=O)CCc1ccccc1`, 73 to 74 °C.
Compound `CC(C)C(NC(=O)C(CC(=O)OC(C)(C)C)NC(=O)CCNC(=O)OCc1ccccc1)C(=O)OC(C)(C)C` (configuration not stated) ({Cbz-βAla}-Asp(OtBu)-Val-OtBu; configuration not given here) returned a melting point of 126 °C.
The compound `CC1(C)CCC23CCC4(C)C(CCC5C6(C)CCC(O)C(C)(C)C6CCC54C)C2C1OC3` (configuration not stated) showed a melting point of 268 to 269 °C.
`O=CN1CCN(O)CC1`: the melting point is 118 to 124 °C.
Under `CC1COc2c(N3CCC(n4ccnn4)C3)c(F)cc3c(=O)c(C(=O)O)cn1c23` (single isomer, unassigned; (-)) stands 225 to 229 °C; under `Cc1ccc(C(=O)c2c(C)cc(CC(=O)O)n2C)cc1`, 160 to 161 °C.
Consider `Oc1ccc(-c2nc3ccccc3o2)cc1`, for which the melting point is 253 °C.
Consider `Cc1nc2ccc3c(c2o1)C(CCNC(=O)c1ccccc1)CC3` (configuration not stated), for which the melting point lay in the range of 73 to 76 °C.
`COC(=O)C1CCCCN1S(N)(=O)=O` (configuration not stated) registered a melting point of 72 to 74 °C.
The result for `CN(C(=O)Nc1ccc(Cl)cc1)c1nncs1` reads 182 °C; that for `O=Cc1ccc(NCc2ccc(F)cc2)cn1`, 167 to 169 °C; that for `CCCCCCCCN(C)C(N)=NC#N`, 101 to 104 °C.
Take `CC(=O)OC1CSC(Oc2cccnc2N=CN(C)C)C(OC(C)=O)C1OC(C)=O` (configuration not stated): the melting point amounted to 120 °C.
As to `CNS(=O)(=O)c1ccc2ccccc2c1`, the melting point was determined as 137 °C.
In turn, `O=C(Nc1cccc2[nH]ccc12)C1(OCC2CO2)C=C(Cl)C=CC1` (configuration not stated) displayed a melting point of 175 °C.
The compound `O=C(O)CCCCC(=O)NC1C=CCCCC1` (configuration not stated) came in with a melting point of 132 to 133 °C.
In turn, `Clc1ccc(CC(Cn2cncn2)Cn2cncn2)cc1` came in with a melting point of 107 to 108 °C.
As to `Cc1c(-c2ccccc2)nnc(N(C)C)c1C`, the melting point was in the range of 86 to 89 °C.
The compound `O=C(O)c1cc(OCc2ccccc2)c(OCc2ccccc2)cn1` displayed a melting point of 204 °C.
Compound `O=C(c1ccc(-n2ccc(C3CC3)n2)cc1C(F)(F)F)N1Cc2cccn2Cc2ccccc21` showed a melting point of 163 to 164 °C.
In the case of `CC(C)=CCN1Cc2c(Br)ccc3[nH]c(=O)n(c23)CC1C` (single isomer, unassigned; (+)), the melting point was determined as 125 °C.
`CC(C)(C)C(=O)COc1ccc(S(=O)(=O)c2ccccc2)cc1`: the melting point was 105 to 108 °C.
Regarding `CCn1cc(C(=O)O)c(=O)c2cc(F)c(N3CCC3CN)nc21` (configuration not stated), the melting point lay in the range of 198 to 200 °C.
Under `N#Cc1ccc(Oc2ccc(CBr)cc2)cc1C#N` stands 101 to 102 °C.
In the case of `C=CCONC(CCC)=C1C(=O)CC(CCC2OCCCO2)CC1=O` (configuration not stated), the melting point is 50 to 52 °C.
In the case of `C=CCCN(CCC=C)Cc1noc(-c2ncn3c2[C@@H]2CCN2C(=O)c2ccccc2-3)n1`, the melting point is 80 to 87 °C.
In turn, `CCCCc1nc2c(N)nc3ccc(O)cc3c2n1CCCCNC(=O)N1CCOCC1` gave a melting point of 177 to 182 °C.
Under `O=C(Nc1ccc(-n2nc(C(F)(F)F)cc2C(F)(F)F)cc1)c1ccncc1[N+](=O)[O-]` stands 207 to 209 °C; under `CC(C)CC(NC(=O)C(CS)CC(F)(F)F)C(=O)O` (configuration not stated), 78 to 81 °C.
The compound `CN(c1cncnc1)c1nc(N2CCOCC2)nc(-n2c(C(F)F)nc3ccccc32)n1` gave a melting point of 202 to 205 °C.
Consider `CCOC(=O)C1Cc2cc(C(=O)c3ccccc3F)c(O)c(Cl)c2O1` (configuration not stated), for which the melting point lay in the range of 119 to 120 °C.
In turn, `CC(=O)OC1CCC2(C)C3CCC4(C)C(C(C)CCCC(C)(C)O)CCC4C3CCC2(O)C1` (configuration not stated) had a melting point of 180 to 182 °C.
`CC(C)(C)c1cc(C=Cc2n[nH]c(=S)o2)cc(C(C)(C)C)c1O` had a melting point of 210 °C.
On to `Cc1nc2cc3c(cc2c(=O)[nH]1)C(N(C)c1ccc(C(=O)NC(C(=O)O)c2ccc(CC(=O)O)cc2)c(F)c1)CC3` (mixture of isomers), for which the melting point fell in the range of 196 to 200 °C.
On to `Nc1cc(=O)n(Cc2cccc(Cl)c2)[nH]1`, for which the melting point was 132 °C.
For `Cn1c(=O)cc(-c2nc(-c3ccccc3)cs2)c2cc(C(O)c3ccc(Cl)cc3)ccc21` (configuration not stated), the melting point came to 192 °C.
With `Cc1ccc(-c2cc(C(F)(F)F)nn2-c2ccc(C#N)cc2)cc1`, the melting point was 125 to 126 °C.
In the case of `CS(=O)(=O)c1ccc(C(=O)C2C(=O)CCCC2=O)c(Cl)c1C1=NOC(Cc2ccccc2)C1` (configuration not stated), the melting point was 72 to 76 °C.
The compound `CC(=O)c1nc(C)cn1-c1cc(C)c2[nH]c(=O)ccc2c1` gave a melting point of 312 to 314 °C.
The result for `O=C(O)c1ccc(-n2cnnc2S)cc1` reads more than 300 °C; that for `Cn1ncc(C(=O)N2CCC2)c1C(=O)Nc1ccn2nc(Br)nc2c1`, more than 250 °C.
For `COc1ccc2c(c1)C(=O)C(Cc1cccc(N)c1)CC2` (configuration not stated), the melting point was in the range of 159 to 161 °C.
For `COC(=O)Cn1nnc(NC(=O)C(c2ccccc2)c2ccccc2)n1`, the melting point lay in the range of 168 to 169 °C.

Usually melting point stands for the temperature, or range, at which the solid turns liquid.

The values above are taken from a melting point compilation (Tetko et al.; mined from patent text by program, amines drawn as free bases though some values may be those of a salt).
